Results published in article PMC12505902, “Inhibitors of trehalose-6-phosphate synthase activity in fungal pathogens compromise thermal tolerance pathways” (mBio, 2025).

Legend:
[1] = system: C. albicans; experiment: Fungicidal spot assay on compound-free YPD plates; type: cell-based; details: 42°C exposure, then compound-free YPD plates
Experimental: (§1) We tested the effects of 4456dh on live cells by determining the minimal inhibitory concentration causing 80% growth reduction (MIC80). Wild-type (WT) C. albicans and C. auris cells were incubated with 4456dh in yeast-peptone-dextrose (YPD) medium at 42°C and 39°C, respectively (Fig. 4A). […] 4456dh inhibited the growth of C. auris with an MIC80 of 7 mM at 39°C (Fig. 4A). The MIC80 increased at 30°C to greater than 13 mM (Fig. S7A).
(§2) Fig 4 4456dh inhibits the growth of Candida and Cryptococcus species. Two-fold dose response assays were performed against (A) C. albicans at 42°C and C. auris at 39°C, (B) C. glabrata at 42°C, and (C) C. neoformans, C. deneoformans, and C. gattii at 37°C. 4456dh was administered at the concentrations indicated. […] Left: relative growth of treated samples was calculated by averaging technical triplicates and normalizing the OD600 of each treated well to the average OD600 of the untreated WT controls, after the absorbance due to the compound was subtracted. The MIC80 values, calculated based on the OD600 values, are indicated in the white text on each heat map. […]
(§3) 124 technical replicates. Growth, as determined by a reading of absorbance at 600 nm, was
(§4) 125 normalized to untreated controls and was corrected for the absorbance of 4456dh in the YPD […]
(§5) 129 overnight cultures was quantified by measuring the OD600 and corrected for the background
(§6) 130 absorbance of the medium. […]

[2] = system: C. auris; experiment: Fungicidal spot assay on compound-free YPD plates; type: cell-based; details: 30°C and 39°C exposure
Experimental: as §1, §2, §3, §4, §5, §6

For `Cn1cc(-c2csc(NC(=O)Cc3ccccn3)n2)cn1` [Compound 4456dh], the fungicidal activity [1] was “temperature-dependent fungicidal activity” and the fungicidal activity [2] was “fungicidal activity of 4456dh on C. auris was also detected”.
